Test results reported in ChEMBL document CHEMBL1149379, “Pyrrolo(iso)quinoline derivatives as 5-HT(2C) receptor agonists” (Bioorg Med Chem Lett, 2006).
pEC50, pKi: −log10 of the molar value. The source made the active and inactive calls. The calls are words filed in the database; no cut-off is given here.

Columns and labels:
[1] = target: T1, 5-hydroxytryptamine receptor 2A (Homo sapiens, UniProt P28223); experiment: Binding to human 5HT2A receptor expressed in CHO cells relative to 5HT; format: cell-based
[2] = target: T2, 5-hydroxytryptamine receptor 2C (Homo sapiens, UniProt P28335); experiment: Binding to human 5HT2C receptor expressed in CHO cells; format: cell-based
T2 sequence (P28335 whole entry): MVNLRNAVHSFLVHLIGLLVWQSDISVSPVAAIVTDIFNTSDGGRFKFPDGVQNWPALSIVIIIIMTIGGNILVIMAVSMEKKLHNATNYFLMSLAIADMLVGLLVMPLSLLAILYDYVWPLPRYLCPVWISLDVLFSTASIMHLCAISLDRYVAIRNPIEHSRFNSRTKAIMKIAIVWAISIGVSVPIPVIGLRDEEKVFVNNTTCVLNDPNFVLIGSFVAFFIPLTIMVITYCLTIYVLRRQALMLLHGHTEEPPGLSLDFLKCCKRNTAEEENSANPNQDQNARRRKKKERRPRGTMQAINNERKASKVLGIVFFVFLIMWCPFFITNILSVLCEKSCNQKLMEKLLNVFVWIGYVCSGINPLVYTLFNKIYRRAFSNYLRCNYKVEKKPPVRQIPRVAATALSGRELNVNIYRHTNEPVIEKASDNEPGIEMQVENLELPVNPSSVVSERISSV

[3] = target: T2, 5-hydroxytryptamine receptor 2C; experiment: Displacement of [3H]5-HT from human 5HT2C
[4] = target: T3, 5-hydroxytryptamine receptor 2B (Homo sapiens, UniProt P41595); experiment: Binding to human 5HT2B receptor expressed in CHO cells relative to 5HT; format: cell-based
[5] = target: T3, 5-hydroxytryptamine receptor 2B; experiment: Displacement of [3H]5-HT from human 5HT2B
[6] = target: T1, 5-hydroxytryptamine receptor 2A; experiment: Binding to human 5HT2A receptor expressed in CHO cells; format: cell-based
[7] = target: T3, 5-hydroxytryptamine receptor 2B; experiment: Binding to human 5HT2B receptor expressed in CHO cells; format: cell-based
[8] = target: T1, 5-hydroxytryptamine receptor 2A; experiment: Displacement of [125I]DOI from human 5HT2A
[9] = target: T4, 5-hydroxytryptamine receptor 2C (Homo sapiens) (UniProt P28335); experiment: Binding to human 5HT2C receptor expressed in CHO cells relative to 5HT; format: cell-based
T4 sequence (whole entry): T2 sequence (P28335 whole entry)

Rattus norvegicus [10] = species: Rattus norvegicus; experiment: Blocking of anorectic effect in rats pre-treated with SB-242084; format: functional, organism-based
Rattus norvegicus [11] = experiment: Reduction in food intake in food-deprived rats after 4 hrs of administration of 3 mg/kg; format: functional, organism-based; parameters: dose 3 mg/kg

T3 sequence (P41595 whole entry): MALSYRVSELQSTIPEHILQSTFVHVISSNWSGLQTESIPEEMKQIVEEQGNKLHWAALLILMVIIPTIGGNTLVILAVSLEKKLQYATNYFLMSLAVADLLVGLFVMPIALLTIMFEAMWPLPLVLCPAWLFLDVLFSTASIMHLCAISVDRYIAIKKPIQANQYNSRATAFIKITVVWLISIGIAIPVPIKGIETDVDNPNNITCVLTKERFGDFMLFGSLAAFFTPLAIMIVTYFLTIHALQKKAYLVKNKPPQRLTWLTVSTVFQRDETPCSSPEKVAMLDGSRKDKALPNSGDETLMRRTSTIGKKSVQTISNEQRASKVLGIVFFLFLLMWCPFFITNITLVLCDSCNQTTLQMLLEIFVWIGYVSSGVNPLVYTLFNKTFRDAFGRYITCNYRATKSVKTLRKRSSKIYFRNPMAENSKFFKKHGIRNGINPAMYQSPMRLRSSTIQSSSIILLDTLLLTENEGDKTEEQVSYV
T1 sequence (P28223 whole entry): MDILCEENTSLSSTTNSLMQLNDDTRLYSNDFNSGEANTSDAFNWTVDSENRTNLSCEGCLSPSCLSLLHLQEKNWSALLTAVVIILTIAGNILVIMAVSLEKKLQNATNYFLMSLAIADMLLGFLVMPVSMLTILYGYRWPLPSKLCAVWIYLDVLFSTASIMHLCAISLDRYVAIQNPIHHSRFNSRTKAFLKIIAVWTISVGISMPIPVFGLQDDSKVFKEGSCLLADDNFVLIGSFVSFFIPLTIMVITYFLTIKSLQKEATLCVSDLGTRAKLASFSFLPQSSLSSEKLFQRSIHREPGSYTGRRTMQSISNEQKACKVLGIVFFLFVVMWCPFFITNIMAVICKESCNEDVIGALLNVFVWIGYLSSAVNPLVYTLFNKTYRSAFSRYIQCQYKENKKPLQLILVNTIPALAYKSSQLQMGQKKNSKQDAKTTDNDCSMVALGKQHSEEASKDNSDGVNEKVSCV

NCCc1c[nH]c2ccc(O)cc12
Efficacy [1]: 98%

C[C@H](N)Cn1ccc2ccc3ccncc3c21
pEC50 [2]: 7.14 | pKi [3]: 7.43 | Efficacy [4]: 67% | Efficacy [1]: 67% | pKi [5]: 6.68 | pEC50 [6]: 6.33 | pEC50 [7]: 7.21 | pKi [8]: 6.64 | Efficacy [9]: 98%

C[C@H](N)Cn1ccc2ccc3cccnc3c21
pEC50 [2]: 7.01 | pKi [3]: 7.57 | Efficacy [4]: 60% | Efficacy [1]: 41% | pKi [5]: 6.94 | pEC50 [6]: 6.35 | pEC50 [7]: 7.35 | pKi [8]: 6.64 | Efficacy [9]: 39%

C[C@H](N)Cn1ccc2ccc3ncccc3c21
pEC50 [2]: 8.54 | Activity (Rattus norvegicus [10]): Dose-dependent effect | pKi [3]: 8.80 | Efficacy [4]: 65% | Efficacy [1]: 88% | pEC50 [6]: 7.49 | pEC50 [7]: 8.96 | Activity (Rattus norvegicus [11]): Active | pKi [8]: 7.51 | Efficacy [9]: 99%

C[C@@H](Cn1ccc2ccc3ncccc3c21)NCc1ccccc1
pEC50 [2]: 6.70 | pKi [3]: 7.11 | Efficacy [4]: 70% | Efficacy [1]: 39% | pKi [5]: 6.29 | pEC50 [6]: < 6.00 | pEC50 [7]: 7.01 | pKi [8]: 6.07 | Efficacy [9]: 86%

C[C@H](N)Cn1ccc2cc(F)c(Cl)cc21
Efficacy [4]: 71% | Efficacy [1]: 72% | Efficacy [9]: 93%

C[C@H](N)Cn1ccc2cc(Cl)c3ncccc3c21
pEC50 [2]: 8.16 | pKi [3]: 8.62 | Efficacy [4]: 61% | Efficacy [1]: 85% | pKi [5]: 7.74 | pEC50 [6]: 7.44 | pEC50 [7]: 8.68 | pKi [8]: 7.54 | Efficacy [9]: 101%

Cc1ccccc1CN[C@@H](C)Cn1ccc2ccc3ncccc3c21
pEC50 [2]: 6.66 | pKi [3]: 6.77 | Efficacy [4]: 64% | Efficacy [1]: 49% | pKi [5]: 6.13 | pEC50 [6]: < 6.00 | pEC50 [7]: 6.89 | pKi [8]: 5.77 | Efficacy [9]: 87%

COc1ccccc1CN[C@@H](C)Cn1ccc2ccc3ncccc3c21
pEC50 [2]: 6.26 | pKi [3]: 6.77 | Efficacy [4]: 41% | Efficacy [1]: 24% | pKi [5]: 6.05 | pEC50 [6]: < 6.00 | pEC50 [7]: 6.34 | pKi [8]: 5.80 | Efficacy [9]: 77%

CCN[C@@H](C)Cc1cccc(C(F)(F)F)c1
Activity (Rattus norvegicus [11]): Active

C[C@H](N)Cn1ccc2ccc3cnccc3c21
pEC50 [2]: 6.53 | pKi [3]: 7.14 | Efficacy [4]: 70% | Efficacy [1]: 63% | pKi [5]: 6.11 | pEC50 [6]: < 6.00 | pEC50 [7]: 6.82 | pKi [8]: 5.98 | Efficacy [9]: 93%

C[C@@H](Cn1ccc2ccc3ncccc3c21)NCc1ccc2c(c1)OCO2
pEC50 [2]: 7.38 | pKi [3]: 7.80 | Efficacy [4]: 71% | Efficacy [1]: 69% | pKi [5]: 6.86 | pEC50 [6]: 6.44 | pEC50 [7]: 7.70 | pKi [8]: 6.40 | Efficacy [9]: 98%

C[C@@H](Cn1ccc2ccc3ncccc3c21)NCc1ccccc1Cl
pEC50 [2]: 7.13 | pKi [3]: 7.41 | Efficacy [4]: 72% | Efficacy [1]: 58% | pKi [5]: 6.42 | pEC50 [6]: 6.20 | pEC50 [7]: 7.36 | pKi [8]: 6.17 | Efficacy [9]: 95%

Clc1cccc(N2CCNCC2)c1
Efficacy [4]: 33% | Efficacy [1]: 41% | Efficacy [9]: 83%

C[C@@H](Cn1ccc2ccc3ncccc3c21)NCc1ccc2ccccc2c1
pEC50 [2]: 7.28 | pKi [3]: 7.80 | Efficacy [4]: 76% | Efficacy [1]: 56% | pKi [5]: 6.87 | pEC50 [6]: 6.65 | pEC50 [7]: 7.57 | pKi [8]: 6.74 | Efficacy [9]: 99%

C[C@@H](Cn1ccc2ccc3ncccc3c21)NCC1CCCCC1
pEC50 [2]: 6.46 | pKi [3]: 7.11 | Efficacy [4]: 67% | Efficacy [1]: 32% | pKi [5]: 6.20 | pEC50 [6]: < 6.00 | pEC50 [7]: 6.89 | pKi [8]: 6.03 | Efficacy [9]: 88%

C=CCN[C@@H](C)Cn1ccc2ccc3ncccc3c21
pEC50 [2]: 6.59 | pKi [3]: 7.07 | Efficacy [4]: 70% | Efficacy [1]: 54% | pKi [5]: 6.34 | pEC50 [6]: 6.11 | pEC50 [7]: 7.04 | pKi [8]: 5.94 | Efficacy [9]: 92%
